Laboratory results published in US12599671B2, “Compounds, compositions, and methods for protein degradation” (DANA-FARBER CANCER INSTITUTE, INC., priority 2020, dated 2026).

Columns and labels:
Type in all cases: cell-based
[1] = test system: MV4; 11 WT, MV4; 11 CRBN KO, and MOLM13 cells; test: Cell growth ATPlite assay; conditions: Homo sapiens; ATP level by ATPlite, 48 h treatment, normalized to DMSO; cell line not given
Protocol: Human MV4; 11 WT, MV4; 11 CRBN KO, and MOLM13 cells were seeded in 384-well plate and treated with indicated compounds for 48 h. ATP level was measured by ATPlite (PerkinElmer) according to manufactures instructions. Experimental groups were measured in quadruplicate and ATP level was normalized to DMSO. IC50 was analyzed in GraphPad Prism 7.

[2] = biological target: T1, SMARCA2 (Homo sapiens, UniProt P51531); test: Immunoblot of SMARCA2 in A549 cells; set-up: endogenous in cells; host or cells: A549; conditions: 1 μM
Protocol: (§1) Human A549 were seeded in 6-well plate and treated with Ex. 4 or Ex. 2 for 16, 24 and 40 h. Human MOLM13 were seeded in 6-well plate and treated with Ex. 4 for 6, 10, 16, 24 h. After treatment cells were harvested and lysed in RIPA buffer (Thermo Scientific) with Halt Protease and Phosphatase Inhibitor Cocktail (Thermo Scientific). Protein was extracted and quantified by BCA Protein Assay Kit (Pierce). Protein lysate was separated by NuPAGE 3-8% Tris-Acetate protein gels (Invitrogen) and detected by SMARCA2, PARP and β-ACTIN antibodies (Cell Signaling Technology).

[3] = biological target: T1, SMARCA2; test: Immunoblot of SMARCA2 in MOLM13 cells; set-up: endogenous in cells
Protocol: as §1

T1 sequence (P51531 whole entry): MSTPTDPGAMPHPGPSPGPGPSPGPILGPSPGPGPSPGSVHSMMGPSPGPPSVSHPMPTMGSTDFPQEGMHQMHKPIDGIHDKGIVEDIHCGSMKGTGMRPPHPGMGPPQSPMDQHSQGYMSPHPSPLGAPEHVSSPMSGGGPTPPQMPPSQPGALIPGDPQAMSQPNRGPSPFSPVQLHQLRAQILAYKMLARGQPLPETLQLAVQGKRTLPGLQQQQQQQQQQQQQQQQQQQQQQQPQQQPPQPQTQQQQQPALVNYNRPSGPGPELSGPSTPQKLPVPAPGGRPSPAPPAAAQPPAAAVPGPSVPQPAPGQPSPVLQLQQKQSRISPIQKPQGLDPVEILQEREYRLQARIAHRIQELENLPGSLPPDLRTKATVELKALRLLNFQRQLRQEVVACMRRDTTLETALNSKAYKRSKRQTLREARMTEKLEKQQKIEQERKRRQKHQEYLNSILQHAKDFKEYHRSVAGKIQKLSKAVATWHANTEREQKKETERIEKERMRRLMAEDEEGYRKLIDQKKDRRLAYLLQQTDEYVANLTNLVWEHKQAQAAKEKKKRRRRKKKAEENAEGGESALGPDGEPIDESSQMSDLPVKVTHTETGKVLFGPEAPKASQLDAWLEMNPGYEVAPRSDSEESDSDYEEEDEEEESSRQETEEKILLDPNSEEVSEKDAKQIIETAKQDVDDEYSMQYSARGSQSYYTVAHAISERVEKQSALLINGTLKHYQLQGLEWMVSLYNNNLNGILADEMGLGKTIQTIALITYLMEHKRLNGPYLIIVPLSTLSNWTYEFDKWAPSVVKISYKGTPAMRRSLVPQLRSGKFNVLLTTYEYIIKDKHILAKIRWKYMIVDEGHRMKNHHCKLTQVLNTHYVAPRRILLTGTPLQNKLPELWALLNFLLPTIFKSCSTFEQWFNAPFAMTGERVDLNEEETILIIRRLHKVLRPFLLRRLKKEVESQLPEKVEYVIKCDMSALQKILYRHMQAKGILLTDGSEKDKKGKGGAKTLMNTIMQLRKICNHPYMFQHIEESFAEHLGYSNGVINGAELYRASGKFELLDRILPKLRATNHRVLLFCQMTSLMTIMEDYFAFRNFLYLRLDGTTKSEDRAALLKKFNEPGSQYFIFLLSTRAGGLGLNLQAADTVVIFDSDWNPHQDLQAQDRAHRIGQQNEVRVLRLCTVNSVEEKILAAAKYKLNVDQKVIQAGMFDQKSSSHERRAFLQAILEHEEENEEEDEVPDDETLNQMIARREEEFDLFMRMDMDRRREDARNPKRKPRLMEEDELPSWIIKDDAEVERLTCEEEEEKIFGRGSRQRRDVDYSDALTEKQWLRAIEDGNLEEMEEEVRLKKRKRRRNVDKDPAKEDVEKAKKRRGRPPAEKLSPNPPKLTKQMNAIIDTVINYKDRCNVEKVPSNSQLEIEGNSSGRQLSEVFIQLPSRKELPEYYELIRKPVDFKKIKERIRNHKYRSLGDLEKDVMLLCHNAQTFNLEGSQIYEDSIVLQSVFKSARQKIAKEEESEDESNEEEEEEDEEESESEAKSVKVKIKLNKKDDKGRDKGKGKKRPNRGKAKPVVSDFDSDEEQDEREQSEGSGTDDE

| SMILES | IC50 [1] [nM] | time after which cells started to exhibit protein degradation (Western Blot) [2] [h] | time after which cells started to exhibit protein degradation (Western Blot) [3] [h] |
| --- | --- | --- | --- |
| O=C1CCC(N2C(=O)c3ccc(NCCCCNC(=O)c4cccc(C#Cc5cc(NC(=O)Nc6ccnc(Cl)c6)ccn5)c4)cc3C2=O)C(=O)N1 (stereo not shown) [Example 7] | ≤ 100 | – | – |
| O=C1CCC(N2C(=O)c3cccc(NCCNC(=O)c4cccc(C#Cc5cc(NC(=O)Nc6ccnc(Cl)c6)ccn5)c4)c3C2=O)C(=O)N1 (stereo not shown) [Example 11] | > 100000 | – | – |
| O=C1CCC(N2C(=O)c3cccc(NCCOCCOCCNC(=O)c4cccc(C#Cc5cc(NC(=O)Nc6ccnc(Cl)c6)ccn5)c4)c3C2=O)C(=O)N1 (stereo not shown) [Example 3] | 100 to 1000 | – | – |
| O=C1CCC(N2C(=O)c3cccc(NCCCCNC(=O)c4cccc(C#Cc5cc(NC(=O)Nc6ccnc(Cl)c6)ccn5)c4)c3C2=O)C(=O)N1 (stereo not shown) [Example 4] | ≤ 100 | 40 | 16 |
| O=C1CCC(N2C(=O)c3cccc(NCCCCCCCCNC(=O)c4cccc(C#Cc5cc(NC(=O)Nc6ccnc(Cl)c6)ccn5)c4)c3C2=O)C(=O)N1 (stereo not shown) [Example 2] | 100 to 1000 | 40 | – |
| O=C1CCC(N2C(=O)c3ccc(NCCOCCNC(=O)c4cccc(C#Cc5cc(NC(=O)Nc6ccnc(Cl)c6)ccn5)c4)cc3C2=O)C(=O)N1 (stereo not shown) [Example 8] | ≤ 100 | – | – |
| Cc1ncsc1-c1ccc(CNC(=O)[C@@H]2C[C@@H](O)CN2C(=O)[C@@H](NC(=O)COCCOCCOCCNC(=O)c2cccc(C#Cc3cc(NC(=O)Nc4ccnc(Cl)c4)ccn3)c2)C(C)(C)C)cc1 [Example 10] | 1000 to 10000 | – | – |
| O=C1CCC(N2C(=O)c3cccc(NCCCCCCNC(=O)c4cccc(C#Cc5cc(NC(=O)Nc6ccnc(Cl)c6)ccn5)c4)c3C2=O)C(=O)N1 (stereo not shown) [Example 12] | ≤ 100 | – | – |
| Cc1ncsc1-c1ccc(CNC(=O)[C@@H]2C[C@@H](O)CN2C(=O)[C@@H](NC(=O)CCCCCNC(=O)c2cccc(C#Cc3cc(NC(=O)Nc4ccnc(Cl)c4)ccn3)c2)C(C)(C)C)cc1 [Example 9] | > 100000 | – | – |
| O=C1CCC(N2C(=O)c3cccc(NCCCCCCCCCCCC(=O)OCc4cnc(Cl)cc4NC(=O)Nc4cc(C(F)F)ns4)c3C2=O)C(=O)N1 (stereo not shown) [Example 14] | 1000 to 10000 | – | – |
